In patent publication US6723753B2, “Substituted n-benzyl-n-phenyl aminoalcohol compounds useful for inhibiting cholesteryl ester transfer protein activity” (Pharmacia Corporation, priority 2002, dated 2004):

Target: T1, CETP (Homo sapiens, UniProt P11597)
T1 sequence (P11597 18-493): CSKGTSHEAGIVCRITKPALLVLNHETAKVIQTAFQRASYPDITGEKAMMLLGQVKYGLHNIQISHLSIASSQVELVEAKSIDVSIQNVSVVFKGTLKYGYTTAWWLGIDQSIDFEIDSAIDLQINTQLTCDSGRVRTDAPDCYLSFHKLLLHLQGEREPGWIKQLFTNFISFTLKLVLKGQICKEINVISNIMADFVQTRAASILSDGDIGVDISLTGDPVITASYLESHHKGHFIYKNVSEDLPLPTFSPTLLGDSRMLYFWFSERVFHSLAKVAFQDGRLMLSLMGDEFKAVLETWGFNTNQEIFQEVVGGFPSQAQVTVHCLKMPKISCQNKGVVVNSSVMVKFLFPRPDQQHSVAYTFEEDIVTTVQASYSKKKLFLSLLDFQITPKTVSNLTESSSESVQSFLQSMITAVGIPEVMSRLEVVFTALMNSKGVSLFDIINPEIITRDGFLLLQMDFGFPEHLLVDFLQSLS
Experiment: Assay of CETP Inhibition using Purified Components (Reconstituted Buffer Assay)
Type: biochemical
Parameters: made in house; host or cells: CHO cells (serum-free conditioned medium)
Settings: Inhibition of CETP activity in reconstituted buffer assay; transfer of [3H]CE from HDL to LDL; read-out: IC50
Summary of the method: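 Transfer of radiolabeled cholesteryl ester from HDL to LDL was run for 2 h at 37 °C in pH 7.4 Tris buffer with 1% BSA, using purified CHO-expressed human CETP. Precipitated LDL radioactivity, measured by scintillation after dextran sulfate/MgCl2 precipitation and filtration, yielded the IC50.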

Row | SMILES | IC50 [nM]
1 | COc1c(F)c(F)c(COc2cccc(N(Cc3cccc(OC(F)(F)C(F)F)c3)CC(O)C(F)(F)F)c2)c(F)c1F (stereo not shown) [Example 386] | 3200
2 | COC(=O)c1cccc(COc2cccc(N(Cc3cccc(OC(F)(F)C(F)F)c3)CC(O)C(F)(F)F)c2)c1 (stereo not shown) [Example 387] | 2200
3 | COC(=O)c1ccc(COc2cccc(N(Cc3cccc(OC(F)(F)C(F)F)c3)CC(O)C(F)(F)F)c2)cc1 (stereo not shown) [Example 388] | 3000
4 | OC(CN(Cc1cccc(OC(F)(F)C(F)F)c1)c1cccc(OCc2c(F)cc(F)cc2F)c1)C(F)(F)F (stereo not shown) [Example 392] | 1400
5 | OC(CN(Cc1cccc(OC(F)(F)C(F)F)c1)c1cccc(OCc2c(F)cccc2F)c1)C(F)(F)F (stereo not shown) [Example 394] | 3100
6 | OC(CN(Cc1cccc(OC(F)(F)C(F)F)c1)c1cccc(OCc2ccc(F)c(F)c2)c1)C(F)(F)F (stereo not shown) [Example 398] | 1100
7 | OC(CN(Cc1cccc(OC(F)(F)C(F)F)c1)c1cccc(OCc2ccccc2Br)c1)C(F)(F)F (stereo not shown) [Example 403] | 1500
8 | OC(CN(Cc1cccc(OC(F)(F)C(F)F)c1)c1cccc(OCc2ccccc2Cl)c1)C(F)(F)F (stereo not shown) [Example 404] | 2100
9 | OC(CN(Cc1cccc(OC(F)(F)C(F)F)c1)c1cccc(OCc2cccc(F)c2)c1)C(F)(F)F (stereo not shown) [Example 406] | 1400
10 | COc1cccc(COc2cccc(N(Cc3cccc(OC(F)(F)C(F)F)c3)CC(O)C(F)(F)F)c2)c1 (stereo not shown) [Example 407] | 1500
11 | OC(CN(Cc1cccc(OC(F)(F)C(F)F)c1)c1cccc(OCc2cc(F)cc(F)c2F)c1)C(F)(F)F (stereo not shown) [Example 408] | 750
12 | OC(CN(Cc1cccc(OC(F)(F)C(F)F)c1)c1cccc(OCc2ccc(F)c(C(F)(F)F)c2)c1)C(F)(F)F (stereo not shown) [Example 412] | 710
13 | OC(CN(Cc1cccc(OC(F)(F)C(F)F)c1)c1cccc(OCc2ccc(OCc3ccccc3)cc2)c1)C(F)(F)F (stereo not shown) [Example 413] | 17000
14 | OC(CN(Cc1cccc(OC(F)(F)C(F)F)c1)c1cccc(OCc2ccc(-c3ccccc3)cc2)c1)C(F)(F)F (stereo not shown) [Example 414] | 4600
15 | Cc1c(COc2cccc(N(Cc3cccc(OC(F)(F)C(F)F)c3)CC(O)C(F)(F)F)c2)cccc1[N+](=O)[O-] (stereo not shown) [Example 417] | 17000
16 | OC(CN(Cc1cccc(OC(F)(F)C(F)F)c1)c1cccc(OCc2cc(Cl)cc(Cl)c2)c1)C(F)(F)F (stereo not shown) [Example 422] | 920
17 | OC(CN(Cc1cccc(OC(F)(F)C(F)F)c1)c1cccc(OCc2ccc(Cl)cc2)c1)C(F)(F)F (stereo not shown) [Example 424] | 780
18 | OC(CN(Cc1cccc(OC(F)(F)C(F)F)c1)c1cccc(OCc2cccc(Oc3ccccc3)c2)c1)C(F)(F)F (stereo not shown) [Example 426] | 2500
19 | OC(CN(Cc1cccc(OC(F)(F)C(F)F)c1)c1cccc(OCc2cccnc2)c1)C(F)(F)F (stereo not shown) [Example 428] | 6800

The next compounds have a lower IC50 than those just listed; values first:

Row | IC50 [nM] | SMILES
20 | 610 | OC(CN(Cc1cccc(OC(F)(F)C(F)F)c1)c1cccc(OCc2ccc(SC(F)(F)F)cc2)c1)C(F)(F)F (stereo not shown) [Example 409]
21 | 290 | CCc1ccc(COc2cccc(N(Cc3cccc(OC(F)(F)C(F)F)c3)CC(O)C(F)(F)F)c2)cc1 (stereo not shown) [Example 415]
22 | 510 | OC(CN(Cc1cccc(OC(F)(F)C(F)F)c1)c1cccc(OCc2ccc(C(F)(F)F)cc2)c1)C(F)(F)F (stereo not shown) [Example 416]
23 | 190 | Cc1ccc(COc2cccc(N(Cc3cccc(OC(F)(F)C(F)F)c3)CC(O)C(F)(F)F)c2)cc1C (stereo not shown) [Example 419]
24 | 270 | OC(CN(Cc1cccc(OC(F)(F)C(F)F)c1)c1cccc(OCc2cccc(Cl)c2)c1)C(F)(F)F (stereo not shown) [Example 420]
25 | 490 | OC(CN(Cc1cccc(OC(F)(F)C(F)F)c1)c1cccc(OCc2ccc(Br)cc2)c1)C(F)(F)F (stereo not shown) [Example 421]
26 | 130 | Cc1cc(C)cc(COc2cccc(N(Cc3cccc(OC(F)(F)C(F)F)c3)CC(O)C(F)(F)F)c2)c1 (stereo not shown) [Example 423]
27 | 340 | Cc1cccc(COc2cccc(N(Cc3cccc(OC(F)(F)C(F)F)c3)CC(O)C(F)(F)F)c2)c1F (stereo not shown) [Example 425]
28 | 420 | CC(C)c1ccc(COc2cccc(N(Cc3cccc(OC(F)(F)C(F)F)c3)CC(O)C(F)(F)F)c2)cc1 (stereo not shown) [Example 427]
